# Test results reported in US20260167637A1, “NLRP3 INFLAMMASOME INHIBITOR AND USE THEREOF” (TransThera Sciences (Nanjing), Inc., priority 2022, published 2026).
# Columns and labels:
# THP-1 cell NLRP3 = target: T1, THP-1 cell NLRP3 (Homo sapiens, UniProt Q96P20); experiment: Inhibitory activity against cell NLRP3 inflammasomes in THP-1 cells (LPS + nigericin, ELISA of supernatant); assay type: cell-based; settings: PMA-differentiated THP-1 cells, LPS 500 ng/mL 3 h, compound 1 h, nigericin 30 min; human IL-10 (so in the source) in supernatant by ELISA
# T1 construct: endogenous in cells; host or cells: THP-1 cells, PMA-differentiated, stimulated with LPS and nigericin
# T1 sequence (Q96P20 whole entry): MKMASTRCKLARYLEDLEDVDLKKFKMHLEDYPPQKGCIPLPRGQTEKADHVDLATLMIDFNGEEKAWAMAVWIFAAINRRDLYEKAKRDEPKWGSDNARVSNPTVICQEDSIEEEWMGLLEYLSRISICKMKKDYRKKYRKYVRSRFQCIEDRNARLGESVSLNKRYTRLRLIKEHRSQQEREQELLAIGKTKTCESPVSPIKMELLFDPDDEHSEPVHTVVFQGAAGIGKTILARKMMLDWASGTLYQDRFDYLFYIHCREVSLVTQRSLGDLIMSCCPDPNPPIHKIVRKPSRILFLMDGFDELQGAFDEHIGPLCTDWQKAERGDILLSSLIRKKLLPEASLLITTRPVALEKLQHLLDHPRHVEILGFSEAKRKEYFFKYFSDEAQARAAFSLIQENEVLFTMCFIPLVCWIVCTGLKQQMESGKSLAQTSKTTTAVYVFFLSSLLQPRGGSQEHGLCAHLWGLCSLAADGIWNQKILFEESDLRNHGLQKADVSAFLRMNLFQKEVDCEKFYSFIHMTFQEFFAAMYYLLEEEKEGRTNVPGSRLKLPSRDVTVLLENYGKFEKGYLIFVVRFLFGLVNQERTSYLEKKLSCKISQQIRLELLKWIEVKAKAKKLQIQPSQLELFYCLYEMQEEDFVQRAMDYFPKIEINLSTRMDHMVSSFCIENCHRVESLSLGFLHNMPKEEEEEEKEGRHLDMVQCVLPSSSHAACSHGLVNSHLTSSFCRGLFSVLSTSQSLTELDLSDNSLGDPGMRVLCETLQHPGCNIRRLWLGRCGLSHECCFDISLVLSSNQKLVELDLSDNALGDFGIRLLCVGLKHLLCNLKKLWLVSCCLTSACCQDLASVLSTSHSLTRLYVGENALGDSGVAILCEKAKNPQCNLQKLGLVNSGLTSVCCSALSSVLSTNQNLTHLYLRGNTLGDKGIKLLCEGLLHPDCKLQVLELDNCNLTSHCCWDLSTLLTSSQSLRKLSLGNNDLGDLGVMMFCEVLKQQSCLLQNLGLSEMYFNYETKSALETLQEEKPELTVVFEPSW
# Experimental: Experimental Example 1: Assay for Inhibitory Activity of Compounds Disclosed Herein Against Cell NLRP3 Inflammasomes
# Test substances: The compounds of the present disclosure, prepared according to the methods described in the examples.
# THP-1 is an immortalized human […] cell line.
# Instrument: microplate reader (made by PE)
# Assay Method: 1. THP-1 cells were cultured in 1640 complete medium (500 mL of 1640+56 mL of FBS+560 μL of 1000×P/S+2 μL of mercaptoethanol), and cells at passages 3-20 were used.
# 2. Culture plate coating: 100 μL of polylysine solution was added to a 96-well cell culture plate. After 30 min of incubation at 37° C., the solution was discarded, and the plate was washed with PBS twice for later use.
# 3. Induction of THP-1 differentiation: THP-1 cells were resuspended in an appropriate amount of complete medium containing 10 ng/mL PMA to form a cell suspension with a density of 5×10^5 cells/mL. The suspension was added to the 96-well plate at 100 μL/well, and the plate was incubated overnight in a 37° C. carbon dioxide cell incubator for 16 h.
# 4. Stimulation of THP-1: • a. Serum-free THP-1 culture medium containing LPS was added, with the final concentration being 500 ng/mL. The plate was incubated in a 37° C. carbon dioxide cell incubator for 3 h. • b. Mother liquors of the compounds to be tested with gradient concentrations were prepared with DMSO, added to the cells, and well mixed. Dilution was finally performed in a 1:1000 ratio. The plate was incubated in a 37° C. carbon dioxide cell incubator for 1 h. • c. Nigericin was added to each well, with the final concentration being […]. The plate was incubated in a carbon dioxide cell incubator at 37° C. for 30 min. • d. The medium in the wells was transferred to a new culture plate, and after 5 min of centrifugation at 3000 rpm, the supernatant was transferred to a new 96-well plate. • e. The content of human […] in the collected cell culture supernatant samples was determined with a commercial ELISA kit by following the instructions.
# [1] = Stability in canine liver microsomes; assay type: in vitro ADME; settings: canine liver microsomes 0.5 mg protein/mL, 1 μM test substance, β-NADPH 1 mM, 37° C.; for microsomal CLint at 1 μM / half-life at 1 μM: dog; for half-life at 1 μM: read-out: Canine t1/2
# Experimental: (§1) Experimental Example 2: Evaluation of Stability of Compounds Disclosed Herein in Liver Microsomes
# (§2) Composition of experimental incubation system:
# (§3) An appropriate amount of the compound was precisely weighed out and dissolved in DMSO to prepare a 10.0 mM stock solution. The 10.0 mM stock solution was diluted with DMSO to 1.0 mM, and then diluted with phosphate buffer (containing 3 mM MgCl2) to prepare a 10 μM test substance working solution for later use (DMSO content in the reaction system: 0.1%).
# (§4) An appropriate amount of β-NADPH was precisely weighed out and then prepared into a 5 mM β-NADPH working solution using phosphate buffer (containing 3 mM MgCl2) for later use.
# (§5) (1) The liver microsomes (20 mg protein/mL) were taken out from a −80° C. freezer and pre-incubated on a 37° C. water bath thermostatic oscillator for 3 min to thaw for later use.
# (§6) (2) A mixed solution of the incubation system (without β-NADPH) was prepared according to “composition of experimental incubation system” described above, and pre-incubated on a 37° C. water bath thermostatic oscillator for 2 min.
# (§7) (3) Control group (without β-NADPH): 10 μL of phosphate buffer (containing 3 mM MgCl2) and 40 μL of the mixed solution of the incubation system in step (2) were taken and mixed, and the mixture was vortexed for 30 s and mixed well, resulting in a total reaction volume of 50 μL; the sample was duplicated. The mixture was placed on a 37° C. water bath thermostatic oscillator for incubation, and timing was started, with termination time points set at 0 min and 60 min.
# (§8) (4) Sample group: 10 μL of the β-NADPH solution (5 mM) and 40 μL of the mixed solution in step (2) were taken and mixed, resulting in a total reaction volume of 50 μL; the mixture was vortexed for 30 s and mixed well; the sample was duplicated. The mixture was placed on a 37° C. water bath thermostatic oscillator for incubation, and timing was started, with termination time points set at 0 min, 5 min, 10 min, 20 min, 30 min, and 60 min.
# (§9) (5) The mixture was vortexed for 5 min and then centrifuged at 4000 rpm for 10 min.
# (§10) (6) 50 μL of the supernatant was taken and added to 150 μL of water, and the resulting mixture was vortexed and mixed well before LC/MS/MS analysis.
# (§11) The half-life (t1/2) and clearance rate (CL) were calculated using the following first-order kinetic formula
# (§12) Notes: k denotes the slope of the logarithm of the remaining amount of a compound vs. time, and Vd denotes apparent volume of distribution.
# [2] = Stability in rat liver microsomes; assay type: in vitro ADME; settings: rat liver microsomes 0.5 mg protein/mL, 1 μM test substance, β-NADPH 1 mM, 37° C.; for half-life at 1 μM: read-out: Rat t1/2
# Experimental: as §1, §2, §3, §4, §5, §6, §7, §8, §9, §10, §11, §12
# [3] = Pharmacokinetic study in mice; assay type: in vivo, female C57BL/6J mice; settings: female, C57BL/6J, mouse, plasma; for clearance: read-out: Cl—obs iv (clearance rate) (converted); for Vd: read-out: Vss iv (distribution volume); for bioavailability: po 10 mg/kg vs iv 5 mg/kg, read-out: F% (absolute bioavailability); for Tmax: median, read-out: Tmax po (time to peak plasma concentration); for Cmax: read-out: Cmax po (peak concentration)
# Experimental: (§13) The compounds were prepared into solutions using a mixed vehicle composed of 5% dimethyl sulfoxide, 20% (30% solutol), and 75% normal saline. The compound solutions were intragastrically administered to female C57BL/6J mice at a dose of 10 mg/kg, and the blood collection time points were: 15 min, 30 min, 1 h, 2 h, 4 h, 6 h, 8 h, and 24 h.
# as §13, with “intravenously injected into” for “intragastrically administered to”, “5” for “10”, “were: 5 min,” for “were:”
# The samples to be tested were taken out from a −80° C. freezer, naturally thawed at room temperature, and then vortexed for 5 min.
# Plasma samples of 10 μL from different individuals were accurately pipetted into 1.5 mL centrifuge tubes.
# 900 μL of a 100 ng/mL internal standard working solution (a solution of tolbutamide in acetonitrile) was added, and the mixture was well mixed.
# After 5 min of vortexing, centrifugation was performed at 12,000 rpm for 5 min.
# 50 μL of the supernatant was accurately pipetted into a 96-well plate to which water was added in advance at 150 μL/well.
# After 5 min of vortexing, LC-MS/MS analysis was performed.
# The results of the test substance concentrations were output by Analyst 1.6.3 of AB Sciex.
# Parameters such as mean, standard deviation, and coefficient of variation (excluding those output directly by Analyst 1.6.3) were calculated using Microsoft Excel. PK parameters were calculated using WinNonlin Phenoix 8.2 software NCA (Tmax was a median).
# [4] = Pharmacokinetic study in male SD rats; assay type: in vivo; settings: rat, plasma
# Experimental: Experimental Example 4: Pharmacokinetic Study of Compounds in Male SD Rats
# as §13, with “administered to male SD rats at a” for “administered to female C57BL/6J mice at a”, “dose of 5.0 mg/kg, and” for “dose of 10 mg/kg, and”, “8 h, 10 h, and 24” for “8 h, and 24”
# as §13, with “intravenously injected into male SD rats” for “intragastrically administered to female C57BL/6J mice”, “1.0” for “10”, “were: 5 min,” for “were:”, “4h,” for “4 h,”, “8h, 10” for “8”
# Intravenous catheterization was performed on the animals the day before the administration. After the administration, blood samples of about 300 μL were collected from the jugular vein and placed into anticoagulation tubes containing EDTA-K2. The blood samples were centrifuged at 5000 rpm at 4° C. for 10 min to give plasma samples. The plasma samples were prepared within 30 min after blood collection. The plasma samples were stored in a −80° C. freezer before testing.
# [5] = iv 5 mg/kg, read-out: AUClast iv (0-24 h)
# [6] = iv 5 mg/kg, read-out: tz1/2 iv (terminal half-life) (converted)
# [7] = po 10 mg/kg, read-out: AUClast po (0-24 h)
# [8] = po 10 mg/kg, read-out: tz1/2 po (terminal half-life) (converted)
Structure (SMILES),IC50 (THP-1 cell NLRP3),microsomal CLint at 1 μM [2],half-life at 1 μM [2],"AUC(0-t) [3, 5]",clearance ([3]; iv 5 mg/kg),Vd ([3]; iv 5 mg/kg),"half-life [3, 6]",bioavailability [3],Tmax ([3]; po 10 mg/kg),"AUC(0-t) [3, 7]",Cmax ([3]; po 10 mg/kg),"half-life [3, 8]",microsomal CLint at 1 μM [1],half-life at 1 μM [1],also measured
"CC#Cc1ccc(-c2nnc(N[C@@H]3CCCN(C)C3)c(=O)n2C)c(O)c1 [Compound 27, (R)-3-(2-hydroxy-4-(prop-1-yn-1-yl)phenyl)-4-methyl-6-((1-methylpiperidin-3-yl)amino)-1,2,4-triazin-5(4H)-one]",5.2 nM,6.2 µL/min/mg,224 min,6830 ng·h/mL,11.8 mL/min/kg,2.39 L/kg,573 min,77.7%,15 min,10900 ng·h/mL,5520 ng/mL,239 min,,,Canine t1/2 [1]: →∞
"C#Cc1ccc(-c2nnc(N[C@@H]3CCCN(CCO)C3)c(=O)n2C)c(O)c1 [Compound 42, (R)-3-(4-ethynyl-2-hydroxyphenyl)-6-((1-(2-hydroxyethyl)piperidin-3-yl)amino)-4-methyl-1,2,4-triazin-5(4H)-one]",4.6 nM,4.2 µL/min/mg,330 min,,,,,,,,,,1.2 µL/min/mg,1160 min,"AUC(0-t) ([4]; iv 1 mg/kg, read-out: AUClast iv (0-24 h)): 2490 ng·h/mL; clearance ([4]; iv 1 mg/kg, read-out: Cl—obs iv (clearance rate) (converted)): 6.65 mL/min/kg; Vd ([4]; iv 1 mg/kg, read-out: Vss iv (distribution volume)): 0.694 L/kg; half-life ([4]; iv 1 mg/kg, read-out: tz1/2 iv (terminal half-life) (converted)): 93 min; bioavailability ([4]; po 5 mg/kg vs iv 1 mg/kg, read-out: F% (absolute bioavailability)): 77.8%; Tmax ([4]; po 5 mg/kg, median, read-out: Tmax po (time to peak plasma concentration)): 1 h; AUC(0-t) ([4]; po 5 mg/kg, read-out: AUClast po (0-24 h)): 9720 ng·h/mL; Cmax ([4]; po 5 mg/kg, read-out: Cmax po (peak concentration)): 2490 ng/mL; half-life ([4]; po 5 mg/kg, read-out: tz1/2 po (terminal half-life) (converted)): 239 min"
"[2H]C([2H])([2H])N1CCC[C@@H](Nc2cc(C)c(-c3ccc(C#C)cc3O)nn2)C1 [Compound 84, (R)-5-ethynyl-2-(4-methyl-6-((1-(methyl-d3)piperidin-3-yl)amino)pyridazin-3-yl)phenol]",0.2 nM,4 µL/min/mg,347 min,5590 ng·h/mL,14.8 mL/min/kg,3.02 L/kg,229 min,92.7%,30 min,10400 ng·h/mL,1910 ng/mL,186 min,4 µL/min/mg,347 min,

# More lines, main results first:
IC50 (THP-1 cell NLRP3),microsomal CLint at 1 μM [2],half-life at 1 μM [2],"AUC(0-t) [3, 5]",clearance ([3]; iv 5 mg/kg),Vd ([3]; iv 5 mg/kg),"half-life [3, 6]",bioavailability [3],Tmax ([3]; po 10 mg/kg),"AUC(0-t) [3, 7]",Cmax ([3]; po 10 mg/kg),"half-life [3, 8]",microsomal CLint at 1 μM [1],half-life at 1 μM [1],Structure (SMILES),also measured
0.6 nM,4.6 µL/min/mg,301 min,15100 ng·h/mL,5.32 mL/min/kg,1.85 L/kg,333 min,94.4%,60 min,29100 ng·h/mL,3540 ng/mL,256 min,5.2 µL/min/mg,267 min,"[2H]C([2H])([2H])N1CCC[C@@H](Nc2cc(C3CC3)c(-c3ccc(C#C)cc3O)nn2)C1 [Compound 85, (R)-2-(4-cyclopropyl-6-((1-(methyl-d3)piperidin-3-yl)amino)pyridazin-3-yl)-5-ethynylphenol]",
2.4 nM,8.4 µL/min/mg,165 min,4460 ng·h/mL,18 mL/min/kg,2.41 L/kg,99 min,68.4%,15 min,6280 ng·h/mL,1720 ng/mL,218 min,2.8 µL/min/mg,495 min,"C#Cc1ccc(-c2nnc(N[C@@H]3CCCN(CCO)C3)nc2C2CC2)c(O)c1 [Compound 100, (R)-2-(5-cyclopropyl-3-((1-(2-hydroxyethyl)piperidin-3-yl)amino)-1,2,4-triazin-6-yl)-5-ethynylphenol]",
